Activity calls are given as the source filed them. Rule as the data show it, for most assays here: actives have a measured Kd and inactives only a lower limit.
Assays:
[1] = target: T1, Interleukin-1 receptor-associated kinase 3 (Homo sapiens, UniProt Q9Y616)
T1 sequence (Q9Y616 whole entry): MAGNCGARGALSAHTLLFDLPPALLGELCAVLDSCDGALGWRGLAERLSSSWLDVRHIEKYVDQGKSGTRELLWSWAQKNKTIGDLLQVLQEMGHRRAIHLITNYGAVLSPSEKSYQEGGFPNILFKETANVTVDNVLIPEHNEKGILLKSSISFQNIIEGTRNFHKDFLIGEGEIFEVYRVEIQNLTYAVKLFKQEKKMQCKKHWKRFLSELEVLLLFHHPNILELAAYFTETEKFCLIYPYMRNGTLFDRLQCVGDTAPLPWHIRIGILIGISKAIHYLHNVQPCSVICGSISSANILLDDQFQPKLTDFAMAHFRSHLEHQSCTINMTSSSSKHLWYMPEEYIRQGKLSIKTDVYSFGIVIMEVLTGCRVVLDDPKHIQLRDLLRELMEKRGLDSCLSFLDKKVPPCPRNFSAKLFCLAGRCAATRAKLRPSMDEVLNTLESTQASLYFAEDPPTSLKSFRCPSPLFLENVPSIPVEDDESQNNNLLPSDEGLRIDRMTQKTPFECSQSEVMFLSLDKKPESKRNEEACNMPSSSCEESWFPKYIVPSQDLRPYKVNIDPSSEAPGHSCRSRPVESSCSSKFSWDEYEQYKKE

[2] = target: Interleukin-1 receptor-associated kinase 1 (Homo sapiens, UniProt P51617)
[3] = target: Putative heat shock protein HSP 90-beta 2 (Homo sapiens, UniProt Q58FF8)
[4] = target: Cyclin-dependent kinase 13 (Homo sapiens, UniProt Q14004)
[5] = target: T2, Dual specificity mitogen-activated protein kinase kinase 6 (Homo sapiens, UniProt P52564)
T2 sequence (P52564 whole entry): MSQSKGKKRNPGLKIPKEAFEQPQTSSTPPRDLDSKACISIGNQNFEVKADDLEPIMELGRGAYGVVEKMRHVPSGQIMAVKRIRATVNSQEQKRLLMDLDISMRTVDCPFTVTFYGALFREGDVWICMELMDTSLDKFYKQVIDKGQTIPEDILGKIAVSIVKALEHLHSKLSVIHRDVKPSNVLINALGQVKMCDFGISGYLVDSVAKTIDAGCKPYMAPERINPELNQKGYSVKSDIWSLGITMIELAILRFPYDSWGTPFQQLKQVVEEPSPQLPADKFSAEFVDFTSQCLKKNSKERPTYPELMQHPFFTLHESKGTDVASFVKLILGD

[6] = target: Serine/threonine-protein kinase 26 (Homo sapiens, UniProt Q9P289)
[7] = target: Ras-related protein Rab-6A (Homo sapiens, UniProt P20340)
[8] = target: T3, Serine/threonine-protein kinase STK11 (Homo sapiens, UniProt Q15831)
T3 sequence (Q15831 whole entry): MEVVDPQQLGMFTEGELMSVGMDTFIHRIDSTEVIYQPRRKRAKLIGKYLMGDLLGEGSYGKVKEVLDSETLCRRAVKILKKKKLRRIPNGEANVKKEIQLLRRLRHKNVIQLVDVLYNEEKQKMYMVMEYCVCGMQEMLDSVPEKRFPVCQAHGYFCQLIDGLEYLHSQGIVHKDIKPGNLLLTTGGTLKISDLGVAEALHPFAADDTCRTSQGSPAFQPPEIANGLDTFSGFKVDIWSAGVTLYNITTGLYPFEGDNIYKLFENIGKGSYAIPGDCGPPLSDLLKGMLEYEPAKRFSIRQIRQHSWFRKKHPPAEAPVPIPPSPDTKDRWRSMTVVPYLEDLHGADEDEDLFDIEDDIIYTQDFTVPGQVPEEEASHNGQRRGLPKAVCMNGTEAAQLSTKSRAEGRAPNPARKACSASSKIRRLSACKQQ

[9] = target: Tyrosine-protein kinase ABL2 (Homo sapiens, UniProt P42684)
[10] = target: Structural maintenance of chromosomes protein 2 (Homo sapiens, UniProt O95347)
Ephrin type-B receptor 4 = target: T4, Ephrin type-B receptor 4 (Homo sapiens, UniProt P54760)
T4 sequence (P54760 whole entry): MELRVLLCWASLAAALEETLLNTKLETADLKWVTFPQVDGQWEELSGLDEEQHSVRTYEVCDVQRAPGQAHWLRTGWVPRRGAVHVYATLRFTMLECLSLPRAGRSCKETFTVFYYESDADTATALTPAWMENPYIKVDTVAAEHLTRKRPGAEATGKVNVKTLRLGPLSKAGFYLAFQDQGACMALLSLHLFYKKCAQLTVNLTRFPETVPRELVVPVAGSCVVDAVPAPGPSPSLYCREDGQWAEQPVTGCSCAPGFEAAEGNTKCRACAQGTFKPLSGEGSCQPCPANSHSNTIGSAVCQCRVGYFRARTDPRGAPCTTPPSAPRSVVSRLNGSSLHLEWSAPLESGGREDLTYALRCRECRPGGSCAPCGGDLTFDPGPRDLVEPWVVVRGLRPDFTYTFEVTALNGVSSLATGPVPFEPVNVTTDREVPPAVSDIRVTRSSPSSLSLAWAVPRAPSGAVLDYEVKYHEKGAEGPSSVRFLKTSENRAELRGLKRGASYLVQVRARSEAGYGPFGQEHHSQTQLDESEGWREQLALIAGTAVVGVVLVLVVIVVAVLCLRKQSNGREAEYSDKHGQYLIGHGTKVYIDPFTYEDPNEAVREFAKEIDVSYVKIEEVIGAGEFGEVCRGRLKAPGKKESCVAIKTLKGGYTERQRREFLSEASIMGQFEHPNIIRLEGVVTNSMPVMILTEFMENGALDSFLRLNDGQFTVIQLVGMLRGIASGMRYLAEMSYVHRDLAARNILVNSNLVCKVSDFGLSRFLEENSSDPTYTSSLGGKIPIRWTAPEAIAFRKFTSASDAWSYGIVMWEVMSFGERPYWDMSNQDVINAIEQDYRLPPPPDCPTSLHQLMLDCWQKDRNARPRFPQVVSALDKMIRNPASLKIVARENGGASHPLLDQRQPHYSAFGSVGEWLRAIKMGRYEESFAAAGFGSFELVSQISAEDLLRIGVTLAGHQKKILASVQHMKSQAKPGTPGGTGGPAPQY

[11] = target: Serine/threonine-protein kinase N1 (Homo sapiens, UniProt Q16512)
Ephrin type-A receptor 2 = Ephrin type-A receptor 2 (Homo sapiens, UniProt P29317)
[12] = target: Protein-tyrosine kinase 2-beta (Homo sapiens, UniProt Q14289)
Also: in the data inactive means no Kd found up to 30 µM.

Cyclin-dependent kinase 13, sequence (Q14004 whole entry): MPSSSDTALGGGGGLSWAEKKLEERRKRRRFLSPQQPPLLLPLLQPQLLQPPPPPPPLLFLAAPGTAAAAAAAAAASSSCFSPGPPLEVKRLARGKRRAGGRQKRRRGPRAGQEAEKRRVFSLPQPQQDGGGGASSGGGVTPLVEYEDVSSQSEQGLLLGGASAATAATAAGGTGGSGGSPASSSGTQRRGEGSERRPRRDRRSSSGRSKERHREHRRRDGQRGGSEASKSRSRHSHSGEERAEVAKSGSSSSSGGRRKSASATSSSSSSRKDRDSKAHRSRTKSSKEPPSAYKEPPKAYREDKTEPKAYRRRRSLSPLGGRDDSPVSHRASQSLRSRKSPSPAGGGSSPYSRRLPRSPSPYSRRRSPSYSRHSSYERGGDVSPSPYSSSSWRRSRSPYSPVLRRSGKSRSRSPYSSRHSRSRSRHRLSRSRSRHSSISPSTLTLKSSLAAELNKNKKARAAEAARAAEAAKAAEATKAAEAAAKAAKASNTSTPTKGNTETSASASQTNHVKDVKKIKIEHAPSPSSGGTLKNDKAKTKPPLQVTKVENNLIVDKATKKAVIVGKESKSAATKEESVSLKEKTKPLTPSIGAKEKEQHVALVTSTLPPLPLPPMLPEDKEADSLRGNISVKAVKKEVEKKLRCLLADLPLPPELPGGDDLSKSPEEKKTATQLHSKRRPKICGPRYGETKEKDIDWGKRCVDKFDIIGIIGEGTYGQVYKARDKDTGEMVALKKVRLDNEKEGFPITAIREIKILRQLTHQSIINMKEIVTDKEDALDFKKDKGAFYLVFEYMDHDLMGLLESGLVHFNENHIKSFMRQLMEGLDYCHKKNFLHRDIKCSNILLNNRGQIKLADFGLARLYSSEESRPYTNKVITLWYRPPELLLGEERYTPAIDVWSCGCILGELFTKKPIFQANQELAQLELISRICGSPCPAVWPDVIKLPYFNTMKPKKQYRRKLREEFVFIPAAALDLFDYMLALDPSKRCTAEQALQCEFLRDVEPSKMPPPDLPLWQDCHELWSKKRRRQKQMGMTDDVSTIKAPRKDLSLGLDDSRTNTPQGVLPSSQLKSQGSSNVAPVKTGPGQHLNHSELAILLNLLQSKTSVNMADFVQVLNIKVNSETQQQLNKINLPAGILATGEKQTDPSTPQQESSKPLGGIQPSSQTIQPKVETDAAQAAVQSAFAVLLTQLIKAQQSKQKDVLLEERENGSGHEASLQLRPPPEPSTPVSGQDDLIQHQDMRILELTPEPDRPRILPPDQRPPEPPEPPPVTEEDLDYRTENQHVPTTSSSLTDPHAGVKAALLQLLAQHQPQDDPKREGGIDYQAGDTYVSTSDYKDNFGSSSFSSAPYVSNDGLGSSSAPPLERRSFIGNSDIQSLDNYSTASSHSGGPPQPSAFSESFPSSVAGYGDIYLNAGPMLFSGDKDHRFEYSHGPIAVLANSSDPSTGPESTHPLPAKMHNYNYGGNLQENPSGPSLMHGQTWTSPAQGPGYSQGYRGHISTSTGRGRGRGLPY
Ephrin type-A receptor 2, sequence (P29317 whole entry): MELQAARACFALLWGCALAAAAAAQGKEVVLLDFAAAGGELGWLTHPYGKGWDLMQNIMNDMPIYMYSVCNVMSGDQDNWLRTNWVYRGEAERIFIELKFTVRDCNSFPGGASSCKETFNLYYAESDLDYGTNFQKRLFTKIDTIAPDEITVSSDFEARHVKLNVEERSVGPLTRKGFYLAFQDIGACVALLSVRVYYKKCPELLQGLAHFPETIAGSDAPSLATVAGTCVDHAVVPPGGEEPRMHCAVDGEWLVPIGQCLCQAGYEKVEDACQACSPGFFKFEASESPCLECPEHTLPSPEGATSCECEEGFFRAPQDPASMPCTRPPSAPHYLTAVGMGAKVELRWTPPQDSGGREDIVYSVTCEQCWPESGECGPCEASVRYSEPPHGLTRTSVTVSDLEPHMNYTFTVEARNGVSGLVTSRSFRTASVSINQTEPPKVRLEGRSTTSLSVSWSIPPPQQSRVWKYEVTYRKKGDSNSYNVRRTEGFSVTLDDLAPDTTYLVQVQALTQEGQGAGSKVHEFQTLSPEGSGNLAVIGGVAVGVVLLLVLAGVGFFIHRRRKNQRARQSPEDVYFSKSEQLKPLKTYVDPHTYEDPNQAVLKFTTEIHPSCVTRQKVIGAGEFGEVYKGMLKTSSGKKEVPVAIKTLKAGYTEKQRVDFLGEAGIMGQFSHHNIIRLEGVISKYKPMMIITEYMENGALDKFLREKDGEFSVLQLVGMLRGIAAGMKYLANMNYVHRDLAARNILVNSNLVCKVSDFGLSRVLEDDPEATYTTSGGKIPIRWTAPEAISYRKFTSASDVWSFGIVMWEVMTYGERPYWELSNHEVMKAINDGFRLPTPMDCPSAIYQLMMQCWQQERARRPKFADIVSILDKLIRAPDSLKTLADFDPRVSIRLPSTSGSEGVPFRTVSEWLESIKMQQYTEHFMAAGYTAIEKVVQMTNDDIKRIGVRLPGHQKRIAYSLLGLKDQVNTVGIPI
Protein-tyrosine kinase 2-beta, sequence (Q14289 whole entry): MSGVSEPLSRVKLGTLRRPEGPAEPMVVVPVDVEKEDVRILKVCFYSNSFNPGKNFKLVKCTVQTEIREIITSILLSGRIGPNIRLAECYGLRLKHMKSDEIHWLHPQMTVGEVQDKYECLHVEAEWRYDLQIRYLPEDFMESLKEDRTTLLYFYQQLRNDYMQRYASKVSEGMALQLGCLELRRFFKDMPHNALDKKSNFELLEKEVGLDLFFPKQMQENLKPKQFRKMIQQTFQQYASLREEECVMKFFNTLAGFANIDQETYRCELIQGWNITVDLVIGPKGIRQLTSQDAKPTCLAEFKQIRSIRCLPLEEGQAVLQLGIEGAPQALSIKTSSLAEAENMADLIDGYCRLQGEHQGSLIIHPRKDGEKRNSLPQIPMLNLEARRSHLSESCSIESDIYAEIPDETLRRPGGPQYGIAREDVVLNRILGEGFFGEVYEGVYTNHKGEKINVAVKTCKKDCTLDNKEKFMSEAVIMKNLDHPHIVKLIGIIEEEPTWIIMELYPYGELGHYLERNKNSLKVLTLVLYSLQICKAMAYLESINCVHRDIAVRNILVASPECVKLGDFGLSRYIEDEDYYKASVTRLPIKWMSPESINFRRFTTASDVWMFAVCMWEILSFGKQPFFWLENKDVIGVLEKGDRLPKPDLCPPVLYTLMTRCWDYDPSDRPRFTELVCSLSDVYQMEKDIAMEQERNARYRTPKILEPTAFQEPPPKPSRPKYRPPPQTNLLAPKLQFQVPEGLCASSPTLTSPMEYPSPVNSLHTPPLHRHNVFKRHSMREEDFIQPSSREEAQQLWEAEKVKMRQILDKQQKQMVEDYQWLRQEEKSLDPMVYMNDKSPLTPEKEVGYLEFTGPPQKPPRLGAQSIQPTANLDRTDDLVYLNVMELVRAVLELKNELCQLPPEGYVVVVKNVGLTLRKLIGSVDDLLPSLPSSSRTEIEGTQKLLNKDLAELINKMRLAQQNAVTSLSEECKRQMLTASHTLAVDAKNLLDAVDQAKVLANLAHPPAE
Serine/threonine-protein kinase 26, sequence (Q9P289 whole entry): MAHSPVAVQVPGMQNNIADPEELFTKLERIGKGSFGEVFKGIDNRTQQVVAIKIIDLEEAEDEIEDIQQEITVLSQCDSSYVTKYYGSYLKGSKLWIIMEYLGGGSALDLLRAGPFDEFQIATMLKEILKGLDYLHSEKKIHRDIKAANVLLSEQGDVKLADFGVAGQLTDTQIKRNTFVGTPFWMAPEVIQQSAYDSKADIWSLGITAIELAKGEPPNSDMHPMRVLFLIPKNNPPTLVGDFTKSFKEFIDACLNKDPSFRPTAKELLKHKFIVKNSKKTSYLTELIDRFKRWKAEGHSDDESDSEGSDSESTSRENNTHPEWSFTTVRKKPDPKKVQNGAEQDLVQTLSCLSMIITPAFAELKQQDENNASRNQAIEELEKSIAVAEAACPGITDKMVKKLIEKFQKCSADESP
Tyrosine-protein kinase ABL2, sequence (P42684 whole entry): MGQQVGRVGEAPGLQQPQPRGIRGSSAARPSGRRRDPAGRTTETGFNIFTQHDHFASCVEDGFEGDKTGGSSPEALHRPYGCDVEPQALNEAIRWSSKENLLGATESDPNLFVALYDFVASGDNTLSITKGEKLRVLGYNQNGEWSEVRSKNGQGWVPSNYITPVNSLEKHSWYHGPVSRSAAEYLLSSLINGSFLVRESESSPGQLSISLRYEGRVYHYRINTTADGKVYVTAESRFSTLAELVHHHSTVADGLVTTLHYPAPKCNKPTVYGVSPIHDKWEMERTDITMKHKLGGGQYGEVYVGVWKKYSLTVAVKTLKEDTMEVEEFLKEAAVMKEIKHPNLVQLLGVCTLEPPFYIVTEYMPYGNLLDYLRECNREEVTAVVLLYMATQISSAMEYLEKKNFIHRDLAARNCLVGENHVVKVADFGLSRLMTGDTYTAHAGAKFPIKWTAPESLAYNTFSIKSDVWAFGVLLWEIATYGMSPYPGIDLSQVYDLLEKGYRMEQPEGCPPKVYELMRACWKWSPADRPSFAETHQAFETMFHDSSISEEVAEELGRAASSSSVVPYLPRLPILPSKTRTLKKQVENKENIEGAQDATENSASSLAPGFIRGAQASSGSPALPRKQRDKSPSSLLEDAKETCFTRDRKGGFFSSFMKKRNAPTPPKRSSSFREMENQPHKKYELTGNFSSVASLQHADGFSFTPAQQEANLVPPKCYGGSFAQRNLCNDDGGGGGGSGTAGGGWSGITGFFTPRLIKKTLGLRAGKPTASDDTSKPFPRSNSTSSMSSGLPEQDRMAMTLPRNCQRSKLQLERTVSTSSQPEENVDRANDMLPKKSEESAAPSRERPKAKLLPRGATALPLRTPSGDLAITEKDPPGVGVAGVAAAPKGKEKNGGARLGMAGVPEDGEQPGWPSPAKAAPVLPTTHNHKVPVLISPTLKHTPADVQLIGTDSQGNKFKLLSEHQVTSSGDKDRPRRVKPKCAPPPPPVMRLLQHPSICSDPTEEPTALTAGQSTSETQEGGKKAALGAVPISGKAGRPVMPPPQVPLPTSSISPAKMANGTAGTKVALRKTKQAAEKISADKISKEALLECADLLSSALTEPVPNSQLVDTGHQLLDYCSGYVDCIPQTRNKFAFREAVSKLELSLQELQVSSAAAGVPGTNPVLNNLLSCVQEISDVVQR

| SMILES | Kd [1] | Kd [2] | Kd [3] | Kd [4] | Kd [5] | Kd [6] | Kd [7] | Kd [8] | Kd [9] | Kd [10] | Kd (Ephrin type-B receptor 4) | Kd [11] | Kd (Ephrin type-A receptor 2) | Kd [12] |
| --- | --- | --- | --- | --- | --- | --- | --- | --- | --- | --- | --- | --- | --- | --- |
| Cc1cc(-c2cc(OC(=O)c3ccccc3)ccc2Cl)cc2nnc(Nc3ccc(OCCN4CCCC4)cc3)nc12 [TG100-801] | > 30 µM (inactive) | > 30 µM (inactive) | > 30 µM (inactive) | > 30 µM (inactive) | > 30 µM (inactive) | > 30 µM (inactive) | > 30 µM (inactive) | > 30 µM (inactive) | 1.03 µM (active) | > 30 µM (inactive) | 0.711 µM (active) | > 30 µM (inactive) | 1.19 µM (active) | > 30 µM (inactive) |
| C[C@@H]1COC(Nc2ccc3ncnc(Nc4ccc(OCc5nccs5)c(Cl)c4)c3c2)=N1 [VARLITINIB] | > 30 µM (inactive) | > 30 µM (inactive) | > 30 µM (inactive) | > 30 µM (inactive) | > 30 µM (inactive) | > 30 µM (inactive) | > 30 µM (inactive) | > 30 µM (inactive) | > 30 µM (inactive) | > 30 µM (inactive) | > 30 µM (inactive) | > 30 µM (inactive) | > 30 µM (inactive) | > 30 µM (inactive) |
| CNC(=O)c1cccc(-c2ccc3c(N4CCOC[C@@H]4C)nc(N4CCOC[C@@H]4C)nc3n2)c1 [VISTUSERTIB] | > 30 µM (inactive) | > 30 µM (inactive) | > 30 µM (inactive) | > 30 µM (inactive) | > 30 µM (inactive) | > 30 µM (inactive) | > 30 µM (inactive) | > 30 µM (inactive) | > 30 µM (inactive) | > 30 µM (inactive) | > 30 µM (inactive) | > 30 µM (inactive) | > 30 µM (inactive) | > 30 µM (inactive) |
| NC(=O)c1ccc(N(C(N)=O)c2c(F)cccc2F)nc1-c1ccc(F)cc1F [VX-702] | > 30 µM (inactive) | > 30 µM (inactive) | > 30 µM (inactive) | > 30 µM (inactive) | > 30 µM (inactive) | > 30 µM (inactive) | > 30 µM (inactive) | > 30 µM (inactive) | > 30 µM (inactive) | > 30 µM (inactive) | > 30 µM (inactive) | > 30 µM (inactive) | > 30 µM (inactive) | > 30 µM (inactive) |
| COc1cc2ncnc(Nc3ccc(O)cc3)c2cc1OC [WHI-P131] | > 30 µM (inactive) | > 30 µM (inactive) | > 30 µM (inactive) | > 30 µM (inactive) | > 30 µM (inactive) | > 30 µM (inactive) | > 30 µM (inactive) | > 30 µM (inactive) | > 30 µM (inactive) | > 30 µM (inactive) | > 30 µM (inactive) | > 30 µM (inactive) | > 30 µM (inactive) | > 30 µM (inactive) |
